From the supplement of paper PMC11451515

Test system: NOMO1
Assay: cell viability relative to DMSO control; higher = less cytotoxic
Settings: 48 h
Summary of the method: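 Viability was expressed as a per-plate percentage of DMSO wells, with cell-free wells as background. Leukemia cells (NOMO1 or SEM at 500 cells/well, P12-Ichikawa at 1000 cells/well) were adapted for at least four passages in each medium and seeded in 1536-well plates (5 μl). Library compounds in DMSO were pin-dosed over an 11-point threefold series from 47 μM to 0.79 nM, and CellTiter-Glo One luminescence was read after 48 h at 37°C.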

[1] = HPLM + 10% dialyzed FBS, 0.000781 µM
[2] = HPLM + 10% dialyzed FBS, 0.00234 µM
[3] = HPLM + 10% dialyzed FBS, 0.00702 µM
[4] = HPLM + 10% dialyzed FBS, 0.0211 µM
[5] = HPLM + 10% dialyzed FBS, 0.0632 µM
[6] = HPLM + 10% dialyzed FBS, 0.19 µM
[7] = HPLM + 10% dialyzed FBS, 0.569 µM
[8] = HPLM + 10% dialyzed FBS, 1.71 µM
[9] = HPLM + 10% dialyzed FBS, 5.12 µM
[10] = HPLM + 10% dialyzed FBS, 15.4 µM
[11] = HPLM + 10% dialyzed FBS, 46.1 µM
[12] = RPMI 5 mM glucose + 10% FBS, 0.000781 µM
[13] = RPMI 5 mM glucose + 10% FBS, 0.00234 µM
[14] = RPMI 5 mM glucose + 10% FBS, 0.00702 µM
[15] = RPMI 5 mM glucose + 10% FBS, 0.0211 µM
[16] = RPMI 5 mM glucose + 10% FBS, 0.0632 µM
[17] = RPMI 5 mM glucose + 10% FBS, 0.19 µM
[18] = RPMI 5 mM glucose + 10% FBS, 0.569 µM
[19] = RPMI 5 mM glucose + 10% FBS, 1.71 µM
[20] = RPMI 5 mM glucose + 10% FBS, 5.12 µM
[21] = RPMI 5 mM glucose + 10% FBS, 15.4 µM
[22] = RPMI 5 mM glucose + 10% FBS, 46.1 µM
[23] = RPMI 5 mM glucose + 10% dialyzed FBS, 0.000781 µM
[24] = RPMI 5 mM glucose + 10% dialyzed FBS, 0.00234 µM
[25] = RPMI 5 mM glucose + 10% dialyzed FBS, 0.00702 µM
[26] = RPMI 5 mM glucose + 10% dialyzed FBS, 0.0211 µM
[27] = RPMI 5 mM glucose + 10% dialyzed FBS, 0.0632 µM
[28] = RPMI 5 mM glucose + 10% dialyzed FBS, 0.19 µM
[29] = RPMI 5 mM glucose + 10% dialyzed FBS, 0.569 µM
[30] = RPMI 5 mM glucose + 10% dialyzed FBS, 1.71 µM
[31] = RPMI 5 mM glucose + 10% dialyzed FBS, 5.12 µM
[32] = RPMI 5 mM glucose + 10% dialyzed FBS, 15.4 µM
[33] = RPMI 5 mM glucose + 10% dialyzed FBS, 46.1 µM

Structure (SMILES) | cell viability [1] | cell viability [2] | cell viability [3] | cell viability [4] | cell viability [5] | cell viability [6] | cell viability [7] | cell viability [8] | cell viability [9] | cell viability [10] | cell viability [11] | cell viability [12] | cell viability [13] | cell viability [14] | cell viability [15] | cell viability [16] | cell viability [17] | cell viability [18] | cell viability [19] | cell viability [20] | cell viability [21] | cell viability [22] | cell viability [23] | cell viability [24] | cell viability [25] | cell viability [26] | cell viability [27] | cell viability [28] | cell viability [29] | cell viability [30] | cell viability [31] | cell viability [32] | cell viability [33]
COC1=CC=C(C(=C1)OC(C)C)C/2=N/[C@@H]([C@@H](N2C(=O)N3CCNC(=O)C3)C4=CC=C(Cl)C=C4)C5=CC=C(Cl)C=C5 | 119% | 115% | 114% | 120% | 119% | 112% | 124% | 105% | 96.1% | 29.3% | 5.33% | 105% | 118% | 106% | 100% | 103% | 103% | 104% | 103% | 95.9% | 78.1% | 7.76% | 100% | 102% | 104% | 105% | 102% | 114% | 106% | 103% | 90.8% | 70.3% | 17.7%
CN(C)CC(C)(C)CNc1nn2c(-c3ccccc3)nnc2cc1C1CCC1 | 113% | 110% | 117% | 126% | 113% | 109% | 116% | 110% | 91.9% | 39.5% | 22.4% | 107% | 98.4% | 103% | 123% | 103% | 110% | 111% | 122% | 116% | 87% | 15.6% | 91.6% | 110% | 103% | 105% | 102% | 95.5% | 116% | 109% | 100% | 103% | 27.7%
O=P(O)(O)C(O)(Cn1ccnc1)P(=O)(O)O | 95.9% | 126% | 120% | 119% | 125% | 130% | 121% | 139% | 104% | 111% | 117% | 93.5% | 111% | 108% | 103% | 105% | 109% | 101% | 104% | 110% | 104% | 101% | 101% | 127% | 114% | 130% | 112% | 133% | 118% | 124% | 122% | 117% | 104%
Nc1ncnc2c1ncn2[C@@H]1O[C@H](CO)C[C@H]1O | 105% | 97.1% | 97.1% | 102% | 94.3% | 101% | 73% | 87.4% | 95.2% | 81.7% | 79.8% | 85.7% | 87% | 94.7% | 87.9% | 93% | 84.4% | 88% | 80.7% | 91.1% | 82.5% | 92.4% | 103% | 109% | 94.9% | 103% | 103% | 90.2% | 87.8% | 92.2% | 85.6% | 91.2% | 92.1%
CNCC[C@H](Oc1cccc2ccccc12)c1cccs1 | 117% | 119% | 145% | 116% | 134% | 117% | 130% | 123% | 90.8% | 41.5% | 26.5% | 108% | 122% | 122% | 116% | 120% | 112% | 124% | 110% | 116% | 44.5% | 26.3% | 105% | 127% | 116% | 119% | 137% | 113% | 112% | 114% | 121% | 46.7% | 27.4%
